From patent publication US5516651A, “Nucleic acids encoding calcitonin receptor and uses thereof” (The General Hospital Corporation, priority 1991, dated 1996)
Residue numbers refer to the chain shown, from its start. Blank lines part the entries; values can stand above or below the compound they belong to.

Experiments:
[1] = target: T1, porcine calcitonin receptor (CTR) (Sus scrofa, UniProt P25117); assay type: cell-based
T1 construct: expressed in transfected cells; host or cells: COS cells
T1 sequence (P25117 30-482 isoform P25117-2 K186L): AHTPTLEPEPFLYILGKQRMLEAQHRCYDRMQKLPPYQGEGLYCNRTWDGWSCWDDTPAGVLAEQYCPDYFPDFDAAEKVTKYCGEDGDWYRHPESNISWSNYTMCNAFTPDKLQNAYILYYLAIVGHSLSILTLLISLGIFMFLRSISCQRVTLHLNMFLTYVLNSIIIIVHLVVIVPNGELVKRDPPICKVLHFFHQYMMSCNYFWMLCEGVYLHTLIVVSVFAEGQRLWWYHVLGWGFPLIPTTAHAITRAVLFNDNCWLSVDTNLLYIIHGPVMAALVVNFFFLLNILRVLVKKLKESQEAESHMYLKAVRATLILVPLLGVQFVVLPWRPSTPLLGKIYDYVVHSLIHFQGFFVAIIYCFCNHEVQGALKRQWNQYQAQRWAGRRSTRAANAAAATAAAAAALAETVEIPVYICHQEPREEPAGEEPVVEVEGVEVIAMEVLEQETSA
Protocol: (§1) The cloned porcine receptor is functionally coupled to increased intracellular cAMP (FIGS. 2A and 2B). A 4-fold increase in the concentration of intracellular cAMP was observed after incubation of porcine CTR-transfected COS cells with calcitonin, but there was no increase when cells were transfected with β-galactosidase and subsequently stimulated with calcitonin.
BIN-67 cells or COS-M6 cells were grown in 10 cm petri dishes. Forty eight hours before the cAMP assay, the COS-M6 cells were transfected with either human CTR cDNA, or with β-galactosidase cDNA which served as a control. After 24 hours, the transfected COS-M6 cells and the BIN-67 cells were trypsinized and transferred to plastic trays containing 24 16 mm wells (Falcon) at an initial plating density of 5×10^4 cells/well. To test for hormone-induced cAMP responses, the medium was removed from each well and the cells were washed with PBS supplemented with calcium and magnesium. Triplicate groups of cells were incubated for 20 minutes at 37° C. at room temperature with either test buffer [PBS supplemented with calcium, magnesium, 0.25% bovine serum albumin, 11 mM glucose and 1 mM 3-isobutyl-methyl-xanthine (IBMX)], or with 4 mM isoproterenol or peptide hormone at the appropriate concentrations. Reactions were stopped by placing the culture plates in a water bath at 100° C. until all liquid had evaporated. […]

[2] = system: β-galactosidase transfected COS cells; experiment: cAMP response in mock (β-galactosidase) transfected COS cells; assay type: cell-based; conditions: for activation of adenylate cyclase / increase of cAMP levels: β-galactosidase (mock) transfected COS cells; for increase in cAMP after stimulation with calcitonin: COS cells transfected with β-galactosidase
Protocol: as §1
(§2) BIN-67 cells or COS-M6 cells were grown in 10 cm petri dishes. Forty eight hours before the cAMP assay, the COS-M6 cells were transfected with either human CTR cDNA, or with β-galactosidase cDNA which served as a control. After 24 hours, the transfected COS-M6 cells and the BIN-67 cells were trypsinized and transferred to plastic trays containing 24 16 mm wells (Falcon) at an initial plating density of 5×10^4 cells/well. To test for hormone-induced cAMP responses, the medium was removed from each well and the cells were washed with PBS supplemented with calcium and magnesium. Triplicate groups of cells were incubated for 20 minutes at 37° C. at room temperature with either test buffer [PBS supplemented with calcium, magnesium, 0.25% bovine serum albumin, 11 mM glucose and 1 mM 3-isobutyl-methyl-xanthine (IBMX)], or with 4 mM isoproterenol or peptide hormone at the appropriate concentrations. Reactions were stopped by placing the culture plates in a water bath at 100° C. until all liquid had evaporated. The plates were stored at -20° C. until assayed. The cAMP assay was performed by adding 1.0 ml of 50 mM sodium acetate buffer, pH 6.2, to each well. Dried cells were scraped into this buffer, transferred to glass tubes and centrifuged at 500×g for 10 minutes. Aliquots of supernatant were assayed for cAMP using a radioimmunoassay kit (New England Nuclear/Dupont cAMP [^125 I] Radioimmunoassay Kit, Dupont).

human CTR [3] = target: T2, human CTR (Homo sapiens, UniProt P30988, L447P/S166F); experiment: cAMP assay in COS-M6 cells transfected with human CTR cDNA; assay type: cell-based
T2 construct: expressed in transfected cells; host or cells: COS-M6 (COS-7 subclone)
T2 sequence (P30988 25-490 isoform P30988-1 S166F/L463P): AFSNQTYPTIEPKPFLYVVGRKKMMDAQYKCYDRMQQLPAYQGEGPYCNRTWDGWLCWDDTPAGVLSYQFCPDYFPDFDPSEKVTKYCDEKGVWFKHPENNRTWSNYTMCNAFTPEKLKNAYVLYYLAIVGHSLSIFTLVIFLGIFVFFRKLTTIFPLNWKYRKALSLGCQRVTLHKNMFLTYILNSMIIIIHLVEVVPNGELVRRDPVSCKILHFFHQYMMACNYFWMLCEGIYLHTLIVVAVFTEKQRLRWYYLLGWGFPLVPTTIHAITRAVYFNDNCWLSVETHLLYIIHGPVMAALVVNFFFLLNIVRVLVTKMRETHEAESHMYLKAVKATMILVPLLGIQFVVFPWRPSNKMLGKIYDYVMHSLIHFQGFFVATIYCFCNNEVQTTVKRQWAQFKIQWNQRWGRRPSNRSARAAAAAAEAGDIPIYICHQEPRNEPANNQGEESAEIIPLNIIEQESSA
Protocol: Plasmid DNA was used to transfect COS-M6 cells growing in 10 cm petri dishes (Falcon, Lincoln Park, N.J.) using the DEAE-dextran/chloroquine procedure (Seed and Aruffo, 1987, Proc. Natl. Acad. Sci. USA 84:3365). Forty-eight hours after transfection, cells were incubated in the presence of either iodinated calcitonin for ligand binding studies, or unlabeled calcitonin for the assay of intracellular cAMP.
as §2

human CTR [4] = target: T2, human CTR; experiment: Radioligand binding to COS-M6 cells transfected with human CTR cDNA; conditions: for competition for binding with radioiodinated salmon or human calcitonin: COS cells transfected with human CTR cDNA
Protocol: (§3) Human small ovarian cell carcinoma cells (BIN-67) were grown in 10 cm petri dishes in Dulbecco's modified Eagle's medium (DMEM) supplemented with 20% (vol/vol) heat inactivated fetal calf serum (GIBCO) and enriched with 25% Ham's F12 medium (GIBCO). Cells at near confluency, were passed approximately twice a week by trypsinization using 0.25% trypsin (GIBCO). Radioligand binding assays were performed in triplicate as follows. The cells were washed, trypsinized and counted in an automated cell counter (Coulter, Hialeah, Fla.). […] The mixture was incubated for 14-16 hours at 4° C. The cells were washed by layering 100 μl of cell suspension over 400 μl of 10% sucrose (wt/vol) in a mini-microfuge tube (Bio-Rad) and centrifuging at maximum speed in a microfuge for three minutes to pellet the cells. The supernatant was removed by aspiration, and the portion of the tube containing the cell pellet was cut off and assayed for radioactive content in a gamma counter (TM Analytic, Elk Grove Village, Ill.). Ligand binding to COS-M6 cells transfected with a human CTR-containing plasmid was performed using the same technique.

[5] = target: T1, porcine calcitonin receptor (CTR); experiment: Radioiodinated salmon calcitonin binding to COS cells transfected with porcine CTR cDNA
Description: (§4) Radioiodinated salmon calcitonin binds to LLC-PK1 cells and to COS cells transfected with the cloned porcine calcitonin receptor (CTR) cDNA (FIGS. 1A and 1B). […] Bovine parathyroid hormone (1-34) [PTH(1-34)]

[6] = target: T3, calcitonin binding sites of BIN-67 cells (Homo sapiens, UniProt P30988); experiment: Radioligand binding of salmon and human calcitonin to BIN-67 cells; conditions: for displacement of radiolabeled salmon or human calcitonin binding: concentrations as high as 10^-5 M
T3 construct: native BIN-67 cells (0.42 nM); endogenous in cells; host or cells: BIN-67 (human ovarian small cell carcinoma)
T3 sequence (P30988 25-490 isoform P30988-1 limits assumed): T2 sequence (P30988 25-490 isoform P30988-1 S166F/L463P) with F142S, P439L
Protocol: as §3

BIN-67 cells = experiment: cAMP assay in BIN-67 cells; assay type: cell-based, human; conditions: read-out: 50% maximal effective concentration (EC50) for cAMP increase
Protocol: as §2, with “Aliquots of supernatant were assayed for cAMP using a radioimmunoassay kit (New England Nuclear/Dupont cAMP [^125 I] Radioimmunoassay Kit, Dupont).” left out

[7] = target: T4, calcitonin receptors of BIN-67 cells (Homo sapiens, UniProt P30988); experiment: Emulsion autoradiography of BIN-67 cells with [125I]-salmon calcitonin; assay type: binding
T4 construct: native BIN-67 cells (0.42 nM); endogenous in cells; host or cells: BIN-67 (human ovarian small cell carcinoma)
T4 sequence (P30988 25-490 isoform P30988-1 limits assumed): T2 sequence (P30988 25-490 isoform P30988-1 S166F/L463P) with F142S, P439L
Protocol: Cells were grown on glass chamber slides (Nunc, Kamstrup, DK). The medium was removed by aspiration and the cells were incubated in binding buffer (PBS supplemented with 11 mM glucose, 0.5% bovine serum albumin) with [^125 I]-salmon calcitonin (200 pM) with or without 10^-6 M unlabeled salmon calcitonin (Sigma). After 5 washes in ice cold PBS supplemented with calcium and magnesium, the cells were fixed in PBS plus 2% formaldehyde, coated with Kodak NTB2 emulsion and exposed for 1-3 weeks at 4° C., after which they were developed and counterstained with Giemsa.

[8] = target: T5, calcitonin receptors of LLC-PK1 cells (Sus scrofa, UniProt P25117); experiment: Radioiodinated calcitonin binding to LLC-PK1 cells (Scatchard); parameters: species or system porcine; conditions: FIG. 1A, read-out: apparent dissociation constant (Kd)
T5 construct: endogenous in cells; host or cells: LLC-PK1
T5 sequence (P25117 30-482 isoform P25117-2 limits assumed): T1 sequence (P25117 30-482 isoform P25117-2 K186L) with L157K
Description: The porcine calcitonin receptor was cloned by expression in COS cells, using a strategy generally described in Lin et al., 1991, Proc. Natl. Acad. Sci. USA 88:3185. […] Pools of mini-prep cDNA (Sambrook et al., 1989, Molecular Cloning: A Laboratory Manual, Cold Spring Harbor Laboratory, N.Y.) containing 10^4 recombinants were transfected into COS cells and screened for binding to radioiodinated salmon calcitonin by emulsion autoradiography (Gearing et al., 1989, EMBO 8:3667). After screening 30 pools representing 3×10^5 clones, two positive pools were identified from which two positive clones with cDNA inserts 2.2 and 3.9 kb in length were isolated. The 2.2 kb clone (3JS-14-FI) was a truncated version of the 3.9 kb clone (2B5-0-I) but encoded the same open reading frame.
as §4

Compound: CC(C)NCC(O)c1ccc(O)c(O)c1 (stereo not drawn) [isoproterenol]
activation of adenylate cyclase ([1]; porcine CTR-transfected cells): activated adenylate cyclase
activation of adenylate cyclase / increase of cAMP levels [2]: increased cAMP levels
activation of adenylate cyclase / increase of cAMP levels ([2]; listed as Isoproterenol): activated adenylate cyclase
cAMP response (human CTR [3]; FIG. 7C): increased cAMP levels

competition for binding of radioiodinated salmon calcitonin ([5]; porcine CTR transfectants): did not compete
displacement of radiolabeled salmon or human calcitonin binding ([6]; BIN-67 cells): failed to displace
cAMP response (human CTR [3]; FIG. 7C): failure of PTH to induce a response
Compound: Bovine parathyroid hormone (1-34) [PTH]
competition for binding with radioiodinated salmon or human calcitonin (human CTR [4]): failure of other hormones, including PTH or secretin, to compete for binding

Compound: human calcitonin
maximal binding ([6]; human calcitonin binding to BIN-67 cells, FIG. 6C): 1.92×10^4 cpm per sample
EC50 (BIN-67 cells): ~3 nM

increase in concentration of intracellular cAMP ([1]; cos cells, 20 min): 4 fold
Kd (human CTR [4]; COS-M6 cells transfected with HCTR-BIN67, read-out: apparent Kd (Scatchard analysis)): 0.44 nM
Kd ([5]; COS cells transfected with porcine CTR cDNA, FIG. 1B, read-out: apparent Kd): ~6 nM
Kd ([6]; BIN-67 cells, radiolabeled ligand, 4° C., read-out: Kd (Scatchard analysis)): 0.42 nM
IC50 ([6]; read-out: apparent 50% inhibitory concentration (IC50), BIN-67 cells, [125I]human calcitonin competed with unlabeled ligand): 0.6 to 0.7 nM
competition of [125I]-salmon calcitonin label by excess unlabeled ligand [7]: competed out all of the label
Kd [8]: ~3 nM
increase in cAMP levels (human CTR [3]; maximal stimulatory concentrations, 20 minutes, IBMX, FIG. 7C): ~4 fold
EC50 (BIN-67 cells): ~0.7 nM
Compound: salmon calcitonin
increase in cAMP after stimulation with calcitonin [2]: failed to increase cAMP levels above control levels
increase in cAMP after stimulation with calcitonin ([2]; listed as calcitonin): no increase

displacement of radiolabeled salmon or human calcitonin binding ([6]; BIN-67 cells): failed to displace
cAMP response (human CTR [3]; concentrations up to 10^-6 M): failed to induce a response
Compound: secretin
competition for binding with radioiodinated salmon or human calcitonin (human CTR [4]): failure of other hormones, including PTH or secretin, to compete for binding
